Data published in patent US11377447B2, “Targeted therapeutics” (MADRIGAL PHARMACEUTICALS, INC., priority 2017, dated 2022).

Test: pH of reconstituted and diluted drug product solution
Type: physicochemical
Conditions: lyophilized powder reconstituted with Water for Injection
Method: This solution is filled to deliver 105 mg/vial into a container closure system consisting of a USP Type 1 clear glass vial, stopper, and overseal. The drug product is stored at 2° C. to 8° C., away from light. Prior to administration the lyophilized powder is reconstituted with Water for Injection and then is further diluted in 0.9% Sodium Chloride Injection, USP to the target concentration prior to use. SDC-TRAP-0063 Sodium may have a concentration of between about 25 to about 50 mg/mL, between about 50 to about 100 mg/mL, between about 100 to about 150 mg/mL, or between about 150 to 200 mg/mL. The drug product is intended for intravenous administration by infusion.
The reconstituted solution of SDC-TRAP-0063 Sodium has a pH of 10.0. This solution is diluted to the target dose in 0.9% sodium chloride injection, USP. The pH of the infusion solution depends on the concentration of SDC-TRAP-0063 Sodium in the diluted infusion solution. Across the dose ranges employed in the clinical study protocol, the volume of the diluted infusion solution administered will range from 50 to 500 mL, and the pH will range from 8.1 to 9.6. In order to reduce the potential risks of injection site pain and/or damage to the venous endothelium during IV administration, a central venous access line is used for administration of the diluted SDC-TRAP-0063 Sodium.

CCc1c2c(nc3ccc(OC(=O)N4CCC(CCn5ccc6cc(-n7c(O)nnc7-c7cc(C(C)C)c(O)cc7O)ccc65)CC4)cc13)-c1cc([C@@](O)(CC)C(=O)[O-])c(CO)c(=O)n1C2.[Na+] [SDC-TRAP-0063 Sodium, Sodium (S)-2-(2-((4-(2-(5-(3-(2,4-dihydroxy-5-isopropylphenyl)-5-hydroxy-4H-1,2,4-triazol-4-yl)-1H-indol-1-yl)ethyl)piperidine-1-carbonyl)oxy)-12-ethyl-8-(hydroxymethyl)-9-oxo-9,11-dihydroindolizino[1,2-b]quinolin-7-yl)-2-hydroxybutanoate]
pH of the reconstituted solution: 10.0
